# Data as given in paper PMC7403315, “Cyclic peptide FXII inhibitor provides safe anticoagulation in a thrombosis model and in artificial lungs” (Nature Communications, 2020).
# Where “and” joins values, the source holds several entries; their conditions need not be identical. Equal entries are not always repeated. Where two headings read alike, the source gives them in different places. Starred links: 1 amine or outer side, 2 acyl side, 3 side chain; linkers in the order of their positions; H or OH if unused. Positions of bridges follow the written chain, without caps; N, C: chain ends. Non-standard residues stand in square brackets, D forms with d. Residues, ends and D or L forms follow the SMILES beside them. TATA = O=C(CC[*:1])N1CN(C(=O)CC[*:2])CN(C(=O)CC[*:3])C1; Phe(4-F) = N[C@@H](Cc1ccc(F)cc1)C(=O)O; β3hR = N=C(N)NCCC[C@H](N)CC(=O)O
# Tests used:
# [1] = Plasma degradation assay (LC-MS); type: in vitro ADME, mouse; conditions: 37 °C
# Protocol: Plasma stability and peptide cleavage sites were assessed by incubating the bicyclic peptides in mouse plasma and analyzing the products with an LC-MS system (LCMS-2020, Shimadzu). Peptide (2 μl of 2 mM in H2O) was added to 48 μl of citrated mouse plasma (Innovative Research) to obtain a final peptide concentration of 80 μM. The mixture was incubated in a water bath at 37 °C. At different time points (0, 15, 24, 72, 96, 120, and 144 h), samples of 5 μl were removed, mixed with 5 μl of 6 M guanidinium hydrochloride, and incubated for 30 min at RT. Plasma proteins were precipitated by incubation with 200 μl of ice cold EtOH and 0.1% (v/v) formic acid for 30 min and centrifuged at 9000 × g for 20 min at 4 °C. […] The residue was dissolved in 40 µl of deionized water containing 0.1% (v/v) CHOOH and analyzed by LC-MS. The samples were analyzed using an analytical C18 column (Phenomenex C18 Kinetex column, 50 × 2.1 mm, 2.6 μm, 100 Å) and a linear gradient of 5–35% solvent B (MeCN, 0.05% [v/v] CHOOH) in solvent A (H2O, 0.05% [v/v] CHOOH) in 5.5 min at a flow of 1 ml per min. The masses of the intact peptide and degradation products were measured on a single quadrupole mass spectrometer in positive ion mode using electrospray ionization. Peptides were quantified based on the absolute intensities of the detected mass peaks (M^3+ and M^4+).
# [2] = Pharmacokinetic study in mice (plasma concentration by LC-MS); type: in vivo, mouse; conditions: 5 mg kg^−1 subcutaneous
# Protocol: Mice for all experiments were kept at ambient temperature (around 20 °C), around 60% humidity, half-day light/half-day dark cycles, and in groups of 2–5 mice per cage. C57BL/6J wild-type mice (male, 10–20 weeks old, 25–30 g, Charles River) were injected subcutaneously over the shoulders with 5 mg kg^−1 of FXII900 (0.5 mg ml^−1 in PBS, pH 7.4). The mice were anaesthetized 3 min before the scheduled blood collection time point (40 mg kg^−1 pentobarbital). […] The mice were euthanized by cervical dislocation. The blood was immediately processed to plasma by centrifugation for 10 min at 2000 × g and 4 °C, and stored at −80 °C. The concentration of FXII900 in the plasma samples was determined by LC-MS as described below. Differenct mice were used for each time point.
# (§1) The concentration of FXII900 in the plasma samples was quantified based on peak intensities of total ion current (TIC) chromatograms acquired by LC-MS (LCMS-2020, Shimadzu). To 15 μl of plasma sample, 1 μM of internal standard peptide and 5 μl of 6 M guanidinium hydrochloride solution were added and mixed. Plasma proteins were precipitated by the addition of 400 µl of ice cold ethanol (99.9% [v/v] EtOH, 0.1% [v/v] TFA) and incubated on ice for one hour. Precipitate was removed by centrifugation (9000 × g, 20 min, 4 °C) and the supernatant dried by centrifugal evaporation under vacuum. Dried samples were dissolved by sequentially adding 2 μl of DMSO and 18 μl of H2O containing 0.1% (v/v) CHOOH and analyzed by LC-MS. The samples were analyzed using an analytical C18 column (Phenomenex C18 Kinetex column, 50 × 2.1 mm, 2.6 µm, 100 Å) and a linear gradient of 5–30% solvent B (MeCN, 0.05% [v/v] CHOOH) in solvent A (H2O, 0.05% [v/v] CHOOH) in 4.5 min at a flow of 1 ml per min. The mass was measured on a single quadrupole mass spectrometer in positive ion mode using electrospray ionization. Peptides were quantified based on the absolute intensities of the detected mass peaks (M^3+ and M^4+).
# [3] = Pharmacokinetic study in rabbits (plasma concentration by LC-MS); type: in vivo, rabbit
# Protocol: The pharmacokinetic properties of FXII900 applied intravenously were determined as follows. Female New Zealand White rabbits (10–20 weeks old) were injected with 3.7 mg kg^−1 FXII900 dissolved in 1 ml PBS, pH 7.4 via the ear vein. […] The concentration of FXII900 in the plasma samples was determined by LC-MS as described below. The pharmacokinetic properties of FXII900 applied subcutaneously were determined as follows. Female New Zealand White rabbits (2.5–2.9 kg) were injected subcutaneously over the shoulders with 3.7 mg kg^−1 of FXII900 dissolved in 1 ml PBS pH 7.4. […] The plasma was stored at −80 °C. The concentration of FXII900 in the plasma samples was determined by LC-MS as described below.
# as §1
# [4] = Observation of toxicity or adverse effects in the animal studies; type: in vivo, mice, rabbits, pigs; conditions: all studies with the three species
# [5] = female, New Zealand White, rabbit, plasma, intravenous, 3.7 mg kg-1
smiles,measurement,setting,value
CC(C)C[C@@H]1NC(=O)[C@H](CCC(N)=O)NC(=O)[C@H](Cc2c[nH]cn2)NC(=O)[C@@H]2CSCCC(=O)N3CN(CN(C3)C(=O)CCSC[C@H](NC(=O)[C@@H](CO)NC(=O)[C@H](N)CCCNC(=N)N)C(=O)N[C@@H](Cc3ccc(F)cc3)C(=O)N[C@@H](CCCNC(=N)N)C(=O)N[C@@H](CC(C)C)C(=O)N3CCC[C@H]3C(=O)N2)C(=O)CCSC[C@@H](C(N)=O)NC(=O)C[C@H](CCCNC(=N)N)NC1=O [FXII900] (H-[dR][dS]C[Phe(4-F)]RLPCHQL[β3hR]C-NH2; linker 3-8-13 via TATA),degradation products by mass spectrometric analysis of plasma samples,[1],no degradation products
same,Plasma conc.,[2]; 15 min,1470 nM
same,level at time molar at 0.05 h,"[2]; male, C57BL/6J, mouse, plasma, sc, 5 mg/kg, 3 min, read-out: Plasma conc.",~1000 nM
same,level at time molar at […],"[2]; male, C57BL/6J, mouse, plasma, sc, 5 mg/kg, 15 min, read-out: Plasma conc.",1990 nM
same,Vd,[3]; [5],0.28 ± 0.05 L/kg
same,clearance,[3]; [5],16.1 ± 1 mL/min/kg
same,half-life,"[3]; female, New Zealand White, rabbit, plasma, intravenous, 3.7 mg kg^−1, read-out: elimination half-life (t1/2 β)",12 ± 2 min
same,level at time molar at 2 min,"[3]; female, New Zealand White, rabbit, plasma, iv, 3.7 mg/kg, intravenous administration, 2 min, individual rabbits and analyses, read-out: Plasma conc.",5510 nM
same,level at time molar at 5 min,"[3]; female, New Zealand White, rabbit, plasma, iv, 3.7 mg/kg, intravenous administration, 5 min, individual rabbits and analyses, read-out: Plasma conc.",2610 nM
same,level at time molar at 10 min,"[3]; female, New Zealand White, rabbit, plasma, iv, 3.7 mg/kg, intravenous administration, 10 min, individual rabbits and analyses, read-out: Plasma conc.",2250 nM
same,level at time molar at 20 min,"[3]; female, New Zealand White, rabbit, plasma, iv, 3.7 mg/kg, intravenous administration, 20 min, individual rabbits and analyses, read-out: Plasma conc.",1260 nM
same,level at time molar at 40 min,"[3]; female, New Zealand White, rabbit, plasma, iv, 3.7 mg/kg, intravenous administration, 40 min, individual rabbits and analyses, read-out: Plasma conc.",503 nM
same,level at time molar at 40 min,"[3]; female, New Zealand White, rabbit, plasma, sc, 3.7 mg/kg, subcutaneous administration, 40 min, individual rabbits and analyses, read-out: Plasma conc.",254 nM
same,Plasma conc.,"[3]; intravenous administration, 5 min, individual rabbits and analyses",2596 nM
same,Plasma conc.,"[3]; intravenous administration, 10 min, individual rabbits and analyses",2079 nM
same,Plasma conc.,"[3]; intravenous administration, 20 min, individual rabbits and analyses",1683 nM and 1119 nM
same,Plasma conc.,"[3]; intravenous administration, 40 min, individual rabbits and analyses",313.9 nM
same,Plasma conc.,"[3]; subcutaneous administration, 10 min, individual rabbits and analyses",237.6 nM
same,Plasma conc.,"[3]; subcutaneous administration, 160 min, individual rabbits and analyses",-5.09 nM
same,signs of toxicity or other adverse effects,[4],did not observe any signs of toxicity or other adverse effects
